Converted amounts (≈) assume the structure as drawn. Read-outs that look alike come from different tables or passages of the source.
Tests used:
[1] = target: KRAS G12D Ba/F3 cells (Homo sapiens, UniProt P01116, G12D, cells depend on it); assay: Ba/F3 proliferation assay, KRAS G12D; format: cell-based; settings: 72 h, AlamarBlue; read-out: KRAS G12D Ba/F3 IC50
Description: To generate KRASG12-dependent Ba/F3 models, Ba/F3 cells are transduced with retroviruses containing vectors that harbor KRASG12 isoforms. Platinum-E cells (Cell Biolabs) are used for retrovirus packaging. Retrovirus is added to Ba/F3 cells. To ensure infection, 4 μg/mL polybrene is added and cells are spinfected. […] Cells with an infection efficiency of 10% to 20% are further cultivated and puromycin selection with 1 μg/mL is initiated. As a control, parental Ba/F3 cells are used to show selection status. Selection is considered successful when parental Ba/F3 cells cultures died. To evaluate the transforming potential of KRASG12 mutations, the growth medium is no longer supplemented with IL-3. Ba/F3 cells harboring the empty vector are used as a control. Approximately ten days before conducting the experiments, puromycin is left out. […] All treatments are performed in technical duplicates. […] AlamarBlue™(ThermoFisher), a viability stain, is added and fluorescence measured in the PerkinElmer Envision HTS Multilabel Reader. The raw data are imported into and analyzed with the Boehringer Ingelheim proprietary software MegaLab (curve fitting based on the program PRISM, GraphPad Inc.).

[2] = target: T1, KRAS (G12D)::SOS1 (Homo sapiens, UniProt P01116, G12D); assay: KRAS::SOS1 AlphaScreen binding assay, KRAS G12D
T1 construct: KRAS (G12D) 1-169, N-terminal 6His-tag, C-terminal avi-tag; 6His-tag (N); purchased Xtal BioStructures, Inc. (KRAS G12D); Viva Biotech Ltd (SOS1)
T1 sequence (P01116 1-169 isoform P01116-2 G12D): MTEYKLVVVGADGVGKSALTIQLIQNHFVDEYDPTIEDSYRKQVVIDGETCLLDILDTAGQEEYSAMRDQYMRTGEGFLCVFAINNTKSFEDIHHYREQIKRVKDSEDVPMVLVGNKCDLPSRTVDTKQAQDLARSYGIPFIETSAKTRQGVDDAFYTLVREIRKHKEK
Description: (§1) Low IC50 values in this assay setting are indicative of strong inhibition of protein-protein interaction between SOS1 and KRAS:
(§2) These assays measure the inhibitory effect of compounds on KRAS mutant protein-protein interactions using the Alpha Screen technology by Perkin Elmer.
(§3) For the chosen highest assay concentration of 100 μM, 150 nL of compound solution are transferred from a 10 mM DMSO compound stock solution. A series of eleven fivefold dilutions per compound are transferred to the assay plate, compound dilutions are tested in duplicates. DMSO are added as backfill to a total volume of 150 nL.
(§4) The assays run on a fully automated robotic system in a darkened room below 100 Lux. To 150 nl of compound dilution 10 μl of a mix including KRAS mutant protein, SOS1 (final assay concentrations see above) and GDP nucleotide (Sigma G7127; final assay concentration 10 μM) in assay buffer (1×PBS, 0.1% BSA, 0.05% Tween 20) are added into columns 1-24. After 30 minutes incubation time 5 μl of Alpha Screen bead mix in assay buffer are added into columns 1-23.
(§5) Plates are kept at room temperature in a darkened incubator. After an additional 60 minutes incubation time the signal is measured in a PerkinElmer Envision HTS Multilabel Reader using the AlphaScreen specs from PerkinElmer.
(§6) IC50 values are calculated and analyzed with Boehringer Ingelheim's MEGALAB IC50 application using a 4 parametric logistic model.

[3] = target: T2, KRAS (G12C)::SOS1 (Homo sapiens, UniProt P01116, C118S/C51S/C80L/G12C); assay: KRAS::SOS1 AlphaScreen binding assay, KRAS G12C
T2 construct: KRAS (G12C) 1-169, N-terminal 6His-tag for purification, cleaved off; 6His-tag (N, cleaved yes)
T2 sequence (P01116 1-169 isoform P01116-2 G12C/C51S/C80L/C118S): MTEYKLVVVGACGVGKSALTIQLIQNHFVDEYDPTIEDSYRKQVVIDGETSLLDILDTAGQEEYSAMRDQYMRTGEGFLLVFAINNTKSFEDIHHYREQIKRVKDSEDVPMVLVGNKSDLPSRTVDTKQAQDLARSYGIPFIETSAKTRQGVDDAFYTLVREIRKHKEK
Description: as §1, §2, §3, §4, §5, §6

[4] = system: LOVO cells (CRC, G13D); assay: LOVO CTG proliferation assay (120 h); format: cell-based; settings: Homo sapiens, CellTiter-Glo
Description: (§7) LOVO cells (ATCC CCL-229) are dispensed into 384-well plates, flat and clear bottom (Greiner, PNr. 781091) at a density of 1000 cells per well in 60 μL DMEM (Sigma D6429)+10% Fetal Calf Serum (HyClone, PNr.: SH30084.03) and incubated at 37° C. in a CO2 incubator overnight. The next day, compounds (10 mM stock in DMSO) are added with the ECHO acoustic liquid handler system (Beckman Coulter), including DMSO controls. Plates are incubated for 120 h, and cell viability is measured using CellTiter-Glo luminescent cell viability reagent (Promega product code G7570). Viability (stated as percent of control) is defined as relative luminescence units RLU of each well divided by the RLU of cells in DMSO controls. IC50 values are determined from viability measurements by non-linear regression using a four-parameter model.

[5] = Solubility measurement (DMSO solution precipitation method); format: physicochemical; settings: aqueous buffer, kinetic from dmso stock, ambient temperature
Description: The DMSO solution is diluted with an aqueous medium (McIlvaine buffer with pH=4.5 or 6.8) to a final concentration of 250 μM. After 24 h of shaking at ambient temperature a potentially formed precipitate is removed by filtration. The concentration of the test compound in the filtrate is determined by LC-UV methods by calibrating the signal to the signal of a reference solution with complete dissolution of the test compound in acetonitrile/water (1:1) with known concentration.

[6] = system: SAS cells (HNSCC, wt amplified); assay: SAS CTG proliferation assay (120 h); format: cell-based; settings: CellTiter-Glo
Description: as §7, with “SAS” for “LOVO”, “(JCRB0260)” for “(ATCC CCL-229)”, “300” for “1000”, “DMEM:F12 (Gibco 31330-038)+10%” for “DMEM (Sigma D6429)+10%”

[7] = McIlvaine buffer pH 4.5, 24 h, read-out: solubility pH 4.5
[8] = McIlvaine buffer pH 6.8, 24 h, read-out: solubility pH 6.8

Chain of KRAS G12D Ba/F3 cells (P01116 whole entry G12D, canonical isoform): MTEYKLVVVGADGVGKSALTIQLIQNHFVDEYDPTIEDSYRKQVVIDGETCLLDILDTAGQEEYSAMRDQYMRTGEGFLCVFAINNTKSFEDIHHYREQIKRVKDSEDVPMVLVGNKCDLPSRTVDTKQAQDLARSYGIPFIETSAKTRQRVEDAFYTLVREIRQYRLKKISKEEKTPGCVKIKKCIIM

SMILES	GI50 [1]	IC50 [2]	IC50 [3]	IC50 [4]	solubility at 24 h [5, 7]	solubility at 24 h [5, 8]	IC50 [6]
C[C@H]1CNCCCN1c1nccc(-c2noc3c2CCC[C@@]32CCCc3sc(N)c(C#N)c32)n1 (single isomer, unassigned) [IIb-5]	32 nM	3 nM	7 nM	2870 nM	92 µg/mL (≈ 193 µM)	51 µg/mL (≈ 107 µM)	0.541 µM
CC1Cc2c(-c3ccnc(N4CCCNC[C@@H]4C)n3)noc2C2(CCCc3sc(N)c(C#N)c32)C1 (stereo partly shown) [IIb-1]	469 nM	31 nM	44 nM	2420 nM	57 µg/mL (≈ 116 µM)	32 µg/mL (≈ 65.4 µM)	8.23 µM
C[C@H]1CNCCCN1c1nccc(-c2noc3c2CC(F)(F)CC32CCCc3sc(N)c(C#N)c32)n1 (stereo partly shown) [IIb-2]	798 nM	21 nM	39 nM	3250 nM	53 µg/mL (≈ 104 µM)	27 µg/mL (≈ 52.8 µM)	2.96 µM
C[C@H](Oc1ccnc(-c2noc3c2CCC[C@@]32CCCc3sc(N)c(C#N)c32)n1)[C@@H]1CCCN1C [IIb-3]	16 nM	2 nM	3 nM	–	> 117 µg/mL	> 120 µg/mL	4.96 µM
C[C@H]1CNCCCN1c1nccc(-c2noc3c2CSCC32CCCc3sc(N)c(C#N)c32)n1 (stereo partly shown) [IIb-4]	174 nM	13 nM	19 nM	1660 nM	–	–	8.08 µM
C[C@H]1CNCCCN1c1nccc(-c2noc3c2OCCC32CCCc3sc(N)c(C#N)c32)n1 (stereo partly shown) [IIb-7]	123 nM	2 nM	4 nM	479 nM	> 103 µg/mL	> 100 µg/mL	6.6 µM
C[C@H](Oc1nccc(-c2noc3c2CCC[C@@]32CCCc3sc(N)c(C#N)c32)n1)[C@@]1(C)CCCN1C [IIe-1]	155 nM	4 nM	8 nM	3810 nM	> 115 µg/mL	> 114 µg/mL	4.53 µM
C[C@H]1CNCCN1c1nccc(-c2noc3c2CCC[C@@]32CCCc3sc(N)c(C#N)c32)n1 [IIf-1]	–	–	–	479 nM	–	–	1.38 µM
C[C@@H]1NCCCN(c2nccc(-c3onc4c3CCC[C@@]43CCCc4sc(N)c(C#N)c43)n2)[C@H]1C [Ib-2]	101 nM	5 nM	14 nM	1100 nM	–	–	1.09 µM
C[C@H]1CNCCCN1c1ncnc(-c2onc3c2CCC[C@@]32CCCc3sc(N)c(C#N)c32)n1 [Ib-4]	211 nM	4 nM	9 nM	7250 nM	> 104 µg/mL	95 µg/mL (≈ 199 µM)	0.057 µM
C[C@H]1[C@@H]2CCCN2CCCN1c1nccc(-c2onc3c2CCC[C@@]32CCCc3sc(N)c(C#N)c32)n1 [Id-1]	27 nM	1 nM	3 nM	10000 nM	> 117 µg/mL	> 108 µg/mL	3.99 µM
CO[C@@H]1C[C@@H]([C@H](C)Oc2nccc(-c3onc4c3CCC[C@@]43CCCc4sc(N)c(C#N)c43)n2)N(C)C1 [Ie-1]	28 nM	2 nM	3 nM	333 nM	–	–	13.6 µM
C[C@H](Oc1nccc(-c2onc3c2CCC[C@@]32CCCc3sc(N)c(C#N)c32)n1)[C@@H]1C[C@@H](F)CN1C [Ie-2]	66 nM	2 nM	5 nM	567 nM	> 125 µg/mL	41 µg/mL (≈ 80.6 µM)	8.01 µM
CCN1[C@H]2C[C@H]2C[C@H]1[C@H](C)Oc1nccc(-c2onc3c2CCC[C@@]32CCCc3sc(N)c(C#N)c32)n1 [Ie-3]	33 nM	3 nM	7 nM	539 nM	> 125 µg/mL	> 123 µg/mL	0.37 µM
CC(Oc1nccc(-c2onc3c2CCC[C@@]32CCCc3sc(N)c(C#N)c32)n1)C12CCCN1CCC2 (stereo partly shown) [Ie-5]	66 nM	4 nM	6 nM	178 nM	–	–	1.71 µM
C[C@H]1CNCCCN1c1nccc(-c2onc3c2CCC[C@@]32CCCc3sc(N)c(C#N)c32)n1 [If-1]	77 nM	5 nM	8 nM	3060 nM	–	–	8.27 µM
C[C@H](Oc1nccc(-c2onc3c2CCC[C@@]32CCCc3sc(N)c(C#N)c32)n1)[C@@H]1C[C@@H]2C[C@@H]2N1 [If-2]	4670 nM	6 nM	15 nM	10900 nM	89 µg/mL (≈ 182 µM)	< 1 µg/mL	8.84 µM
